Source: article PMC2806602 (The Journal of neuroscience : the official journal of the …, 2009)
Where a chain is given by its changes, count along the chain named. Like-named read-outs stand apart in the source and are kept apart here.

Tests used:
GluRδ2^Lc = target: T1, GluRδ2^Lc (Rattus norvegicus, UniProt Q63226, A654T); format: cell-based
T1 sequence (Q63226 24-1007 A654T): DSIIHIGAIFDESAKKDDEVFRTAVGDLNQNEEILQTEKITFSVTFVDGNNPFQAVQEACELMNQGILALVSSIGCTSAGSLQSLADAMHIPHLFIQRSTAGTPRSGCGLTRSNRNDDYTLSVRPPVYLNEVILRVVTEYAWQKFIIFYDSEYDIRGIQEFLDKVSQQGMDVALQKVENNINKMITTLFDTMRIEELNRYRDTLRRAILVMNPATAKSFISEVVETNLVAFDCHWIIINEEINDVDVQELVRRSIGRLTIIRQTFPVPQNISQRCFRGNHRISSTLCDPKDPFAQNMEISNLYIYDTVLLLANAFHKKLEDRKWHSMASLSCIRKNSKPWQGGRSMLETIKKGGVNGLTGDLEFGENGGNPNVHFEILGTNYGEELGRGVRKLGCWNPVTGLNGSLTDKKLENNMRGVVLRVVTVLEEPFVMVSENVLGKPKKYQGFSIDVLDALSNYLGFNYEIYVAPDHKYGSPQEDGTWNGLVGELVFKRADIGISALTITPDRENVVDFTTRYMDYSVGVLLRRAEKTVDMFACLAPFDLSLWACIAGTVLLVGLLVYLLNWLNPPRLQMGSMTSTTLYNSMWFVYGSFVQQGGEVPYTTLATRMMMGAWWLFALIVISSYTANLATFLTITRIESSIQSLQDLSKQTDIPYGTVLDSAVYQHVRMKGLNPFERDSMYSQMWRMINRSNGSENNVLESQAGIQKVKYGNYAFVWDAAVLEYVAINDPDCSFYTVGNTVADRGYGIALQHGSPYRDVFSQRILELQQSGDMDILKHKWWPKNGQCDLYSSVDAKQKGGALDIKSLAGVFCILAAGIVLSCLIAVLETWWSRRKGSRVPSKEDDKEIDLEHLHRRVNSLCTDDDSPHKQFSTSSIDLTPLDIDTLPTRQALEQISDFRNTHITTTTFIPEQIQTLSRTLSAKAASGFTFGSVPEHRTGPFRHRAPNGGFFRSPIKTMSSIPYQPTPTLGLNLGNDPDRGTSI

GluRδ2^Wt C811S = target: T2, GluRδ2^Wt C811S (Rattus norvegicus, UniProt Q63226, C811S); experiment: Two-electrode voltage-clamp recordings in Xenopus oocytes, GluRδ2^Wt C811S; format: cell-based; conditions: data not shown
T2 sequence (Q63226 24-1007 C811S): T1 sequence (Q63226 24-1007 A654T) with T631A, C788S

| spontaneously active current relative to baseline with Ba^2+ (GluRδ2^Lc; 0.5 mM Ba^2+ exchanged with 0.5 mM of the divalent cation) | Ca^2+ potentiation (relative to baseline) (GluRδ2^Lc; 3 mM Ca^2+, baseline spontaneously active current, ± SEM) [fold] | maximal fold potentiation relative to baseline spontaneously active currents (GluRδ2^Lc; Ca^2+ concentration-response, fitted maximum) [fold] | nH of reduction of D-serine potency by extracellular Ca^2+ (GluRδ2^Lc; Hill coefficient) | nH of Ca^2+ potentiation of GluRδ2^Lc currents (GluRδ2^Lc; Hill coefficient, in the absence of D-serine) | nH of Ca^2+ potentiation of GluRδ2^Lc currents (GluRδ2^Lc; Hill coefficient, in the presence of 1 mM D-serine) | EC50 (GluRδ2^Lc; read-out: EC50 of Ca^2+ to potentiate GluRδ2^Lc currents, in the presence of 1 mM D-serine) [µM] | EC50 (GluRδ2^Lc; read-out: EC50 of Ca^2+ to potentiate spontaneously active GluRδ2^Lc currents, in the absence of D-serine) [µM] | D-serine + 0 mM Ca^2+ nH (GluRδ2^Lc; Hill slope, 0 mM Ca^2+) | D-serine + 3 mM Ca^2+ nH (GluRδ2^Lc; Hill slope, 3 mM Ca^2+) | Structure (SMILES) | response to D-serine (GluRδ2^Wt C811S) |
| --- | --- | --- | --- | --- | --- | --- | --- | --- | --- | --- | --- |
| 3.91 ± 0.22 | 3.8 ± 0.23 | 4.1 ± 0.2 | 1.3 | 1.7 | 2.3 | 676 ± 13 | 205 ± 7 | – | – | [Ca+2] [Ca^2+, calcium] | – |
| – | – | – | – | – | – | – | – | 1.0 | 2.1 | N[C@H](CO)C(=O)O [D-serine] | Neither the C811S mutation nor the triple P528C+L789C+C811S mutation resulted in measurable responses |
